What all share (experiment): Cell vitality assay (ATP assay, CellTiter-Glo)
Format in all cases: cell-based

For assay [1], the system named is U138. To be noted: U138, 72 h; Table IIa; read-out: IC50 ATP-Assay after 72 h U138. The procedure, abridged: (§1)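 Cells (1000/well) incubated 72 h with test compound, top dose 12.5 μM, twofold dilutions, DMSO as reference. Lysis reagent added, luminescence recorded; background from cell-free medium wells.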
The subject of assay [2] is C8161. To be noted: Homo sapiens; C8161, 72 h; Table IIa; read-out: IC50 ATP-Assay after 72 h C8161. The procedure, abridged:
as §1

For assay [3], the system named is SF763. To be noted: SF763, 72 h; Table IIa; read-out: IC50 ATP-Assay after 72 h SF763. The procedure, abridged:
as §1

Assay [4] concerns A172. To be noted: Homo sapiens, A 172; A172, 72 h; Table IIa; read-out: IC50 ATP-Assay after 72 h A172. The procedure, abridged: as §1
The subject of assay [5] is MDA-MB231. To be noted: Homo sapiens, MDA-MB-231; MDA-MB231, 72 h; Table IIa; read-out: IC50 ATP-Assay after 72 h MDA-MB231. The procedure, abridged:
as §1

Drawing on patent US9169241B2, “Quinolinyloxyphenylsulfonamides” (Max-Planck-Gesellschaft Zur Forderung der Wissenschaften …, priority 2009, dated 2015), this text covers IC50 for 21 compounds.

As to `COc1cc2c(Oc3ccc(NS(=O)(=O)c4ccccc4[N+](=O)[O-])cc3F)ccnc2cc1OCCCN1CCCCC1` [Example 7, N-{3-Fluoro-4-[6-methoxy-7-(3-piperidin-1-yl-propoxy)-quinolin-4-yloxy]-phenyl}-2-nitro-benzenesulfonamide], the IC50 is at most 12.5 µM in assay [1]; at most 12.5 µM in assay [2]; at most 12.5 µM in assay [3]; 12.5 to 50 µM in assay [4]; at most 12.5 µM in assay [5].
With `COc1cc2c(Oc3ccc(NS(=O)(=O)c4cccc(-c5ccccc5)c4)cc3F)ccnc2cc1OCCCN1CCCCC1` [Example 8, Biphenyl-3-sulfonic acid {3-fluoro-4-[6-methoxy-7-(3-piperidin-1-yl-propoxy)-quinolin-4-loxy]-phenyl}-amide], the 50% inhibitory concentration (IC50) in assay [1], in assay [2], in assay [3] and in assay [4] was at most 12.5 µM each time.
As to `COc1cc2c(Oc3ccc(NS(=O)(=O)c4cccc(Oc5ccccc5)c4)cc3F)ccnc2cc1OCCCN1CCCCC1` [Example 10, N-{3-Fluoro-4-[6-methoxy-7-(3-piperidin-1-yl-propoxy)-quinolin-4-yloxy]-phenyl}-3-phenoxy-benzenesulfonamide], the IC50 in assay [1], in assay [2], in assay [3], in assay [4] and in assay [5] was at most 12.5 µM throughout.
For the compound `COc1cc2c(Oc3ccc(NS(=O)(=O)c4ccccc4[N+](=O)[O-])cc3F)ccnc2cc1OCCCN1CCN(C)CC1` [Example 21, N-(3-Fluoro-4-{6-methoxy-7-[3-(4-methyl-piperazin-1-yl)-propoxy]-quinolin-4-yloxy}-phenyl)-2-nitro-benzenesulfonamide], the concentration for half-maximal inhibition (IC50) in assay [2], in assay [3] and in assay [5] was 12.5 to 50 µM throughout.
Turning to `COc1cc2c(Oc3ccc(NS(=O)(=O)c4ccccc4OC(F)(F)F)cc3F)ccnc2cc1OCCCN1CCN(C)CC1` [Example 25, N-(3-Fluoro-4-{6-methoxy-7-[3-(4-methyl-piperazin-1-yl)-propoxy]-quinolin-4-yloxy}-phenyl)-2-trifluoromethoxy-benzenesulfonamide], the IC50 in assay [1], in assay [2], in assay [3] and in assay [5] was at most 12.5 µM each time.
Regarding `COc1cc2c(Oc3ccc(NS(=O)(=O)c4ccccc4Cl)cc3F)ccnc2cc1OCCCN1CCN(C)CC1` [Example 29, 2-Chloro-N-(3-fluoro-4-{6-methoxy-7-[3-(4-methyl-piperazin-1-yl)-propoxy]-quinolin-4-yloxy}-phenyl)-benzenesulfonamide], the IC50 in assay [1] was at most 12.5 µM; in assay [2], at most 12.5 µM; in assay [3], 12.5 to 50 µM; in assay [5], at most 12.5 µM.
On to `COc1cc2c(Oc3ccc(NS(=O)(=O)c4c(Cl)cccc4Cl)cc3F)ccnc2cc1OCCCN1CCN(C)CC1` [Example 32, 2,6-Dichloro-N-(3-fluoro-4-{6-methoxy-7-[3-(4-methyl-piperazin-1-yl)-propoxy]-quinolin-4-yloxy}-phenyl)-benzenesulfonamide], for which the IC50 in assay [1], in assay [2], in assay [3] and in assay [5] was at most 12.5 µM in each case.
As to `COc1cc2c(Oc3ccc(NS(=O)(=O)c4ccccc4OC)cc3F)ccnc2cc1OCCCN1CCN(C)CC1` [Example 33, N-(3-Fluoro-4-{6-methoxy-7-[3-(4-methyl-piperazin-1-yl)-propoxy]-quinolin-4-yloxy}-phenyl)-2-methoxy-benzenesulfonamide], the IC50 in assay [1], in assay [2], in assay [3] and in assay [5] was at most 12.5 µM throughout.
Take `COc1cc2c(Oc3ccc(NS(=O)(=O)c4ccccc4Cl)cc3F)ccnc2cc1OCCCN1CCCC(C)C1` (centres unmarked) [Example 38, 2-Chloro-N-(3-fluoro-4-{6-methoxy-7-[3-(3-methyl-piperidin-1-yl)-propoxy]-quinolin-4-yloxy}-phenyl)-benzenesulfonamide]: the IC50 in assay [1], in assay [2], in assay [3], in assay [4] and in assay [5] was at most 12.5 µM throughout.
As to `COc1cc2c(Oc3ccc(NS(=O)(=O)c4cccc(C#N)c4)cc3F)ccnc2cc1OCCCN1CCCC(C)C1` (centres unmarked) [Example 41, 3-Cyano-N-(3-fluoro-4-{6-methoxy-7-[3-(3-methyl-piperidin-1-yl)-propoxy]-quinolin-4-yloxy}-phenyl)-benzenesulfonamide], the IC50 in assay [1], in assay [2], in assay [3] and in assay [5] was at most 12.5 µM throughout.
With `COc1cc2c(Oc3ccc(NS(=O)(=O)c4cc(C)ccc4F)cc3F)ccnc2cc1OCCCN1CCCC(C)C1` (centres unmarked) [Example 55], the IC50 in assay [1] is 12.5 to 50 µM; in assay [2] it was at most 12.5 µM; in assay [3], 12.5 to 50 µM; in assay [5], at most 12.5 µM.
Take `COc1cc2c(Oc3ccc(NS(=O)(=O)c4ccc(C)c(F)c4)cc3F)ccnc2cc1OCCCN1CCCC(C)C1` (centres unmarked) [Example 56, 3-Fluoro-N-(3-fluoro-4-{6-methoxy-7-[3-(3-methyl-piperidin-1-yl)-propoxy]-quinolin-4-yloxy}-phenyl)-4-methyl-benzenesulfonamide]: the IC50 in assay [1] was at most 12.5 µM; in assay [2] it was at most 12.5 µM; in assay [3] it was at most 12.5 µM; in assay [5], 12.5 to 50 µM.
Turning to `COc1cc2c(Oc3ccc(NS(=O)(=O)c4cccc(Oc5ccccc5)c4)cc3F)ccnc2cc1OCCCN1CCCC(C)C1` (centres unmarked) [Example 59, N-(3-Fluoro-4-{6-methoxy-7-[3-(3-methyl-piperidin-1-yl)-propoxy]-quinolin-4-yloxy}-phenyl)-3-phenoxy-benzenesulfonamide], the IC50 in assay [1], in assay [2], in assay [3] and in assay [5] was at most 12.5 µM each time.
In the case of `COc1cc2c(Oc3ccc(NS(=O)(=O)c4ccc(Cl)s4)cc3F)ccnc2cc1OCCCN1CCCC(C)C1` (centres unmarked) [Example 63, 5-Chloro-thiophene-2-sulfonic acid (3-fluoro-4-{6-methoxy-7-[3-(3-methyl-piperidin-1-yl)-propoxy]-quinolin-4-yloxy}-phenyl)-amide], the IC50 in assay [1] was 12.5 to 50 µM; in assay [2], at most 12.5 µM; in assay [3], at most 12.5 µM; in assay [5], at most 12.5 µM.
For `COc1cc2c(Oc3ccc(NS(=O)(=O)c4cccc(C)c4)cc3F)ccnc2cc1OCCCN1CCCC(C)C1` (centres unmarked) [Example 70, N-(3-Fluoro-4-{6-methoxy-7-[3-(3-methyl-piperidin-1-yl)-propoxy]-quinolin-4-yloxy}-phenyl)-3-methyl-benzenesulfonamide], the IC50 in assay [1] was at most 12.5 µM; in assay [2] it was 12.5 to 50 µM; in assay [3], 12.5 to 50 µM; in assay [5], 12.5 to 50 µM.
With `COc1cc2c(Oc3ccc(NS(=O)(=O)c4ccc(F)c(C#N)c4)cc3F)ccnc2cc1OCCCN1CCCC(C)C1` (centres unmarked) [Example 72, 3-Cyano-4-fluoro-N-(3-fluoro-4-{6-methoxy-7-[3-(3-methyl-piperidin-1-yl)-propoxy]-quinolin-4-yloxy}-phenyl)-benzenesulfonamide], the IC50 in assay [1], in assay [2], in assay [3] and in assay [5] was 12.5 to 50 µM in each case.
Consider `COc1cc2c(Oc3c(Cl)cc(NS(=O)(=O)c4c(F)cccc4F)cc3Cl)ccnc2cc1OCCCN1CCN(C)CC1` [Example 88, N-(3,5-Dichloro-4-{6-methoxy-7-[3-(4-methyl-piperazin-1-yl)-propoxy]-quinolin-4-yloxy}-phenyl)-2,6-difluoro-benzenesulfonamide], for which the IC50 in assay [1] was 12.5 to 50 µM; in assay [2], at most 12.5 µM; in assay [3], 12.5 to 50 µM; in assay [5], at most 12.5 µM.
`COc1cc2c(Oc3ccc(NS(=O)(=O)c4ccccc4C(F)(F)F)cc3F)ccnc2cc1OCC(=O)N(C)C` [Example 93, 2-{4-[2-Fluoro-4-(2-trifluoromethyl-benzenesulfonylamino)-phenoxy]-6-methoxy-quinolin-7-yloxy}-N,N-dimethyl-acetamide]: the IC50 in assay [1] is 12.5 to 50 µM; in assay [2], at most 12.5 µM; in assay [3] it was 12.5 to 50 µM; in assay [5] it was 12.5 to 50 µM.
On to `COc1cc2c(Oc3ccc(NS(=O)(=O)c4ccccc4C(F)(F)F)cc3F)ccnc2cc1OCCCNC1CCOCC1` [Example 95, N-(3-Fluoro-4-{6-methoxy-7-[3-(tetrahydro-pyran-4-ylamino)-propoxy]-quinolin-4-yloxy}-phenyl)-2-trifluoromethyl-benzenesulfonamide], for which the IC50 in assay [1] was at most 12.5 µM; in assay [2] it was 12.5 to 50 µM; in assay [3], at most 12.5 µM; in assay [5] it was at most 12.5 µM.
In the case of `COc1cc2c(Oc3c(Cl)cc(NS(=O)(=O)c4c(F)cccc4F)cc3Cl)ccnc2cc1OCCCN1CCC(C)CC1` [Example 209, N-(3,5-Dichloro-4-{6-methoxy-7-[3-(4-methyl-piperidin-1-yl)-propoxy]-quinolin-4-yloxy}-phenyl)-2,6-difluoro-benzenesulfonamide], in assay [4], the IC50 is at most 12.5 µM.
Same read-out and setting: in the case of `COc1cc2c(Oc3c(Cl)cc(NS(=O)(=O)c4ccccc4C(F)(F)F)cc3Cl)ccnc2cc1OCCCN1CCC(C)CC1` [Example 210, N-(3,5-Dichloro-4-{6-methoxy-7-[3-(4-methyl-piperidin-1-yl)-propoxy]-quinolin-4-yloxy}-phenyl)-2-trifluoromethyl-benzenesulfonamide] it was at most 12.5 µM.
